Measured values as given in ChEMBL document CHEMBL5291721, “A preclinical secondary pharmacology resource illuminates target-adverse drug reaction associations of marketed drugs” (Nat Commun, 2023).

Assays:
[1] = molecular target: T1, Alpha-2A adrenergic receptor (Homo sapiens, UniProt P08913); assay type: functional, cell-based
T1 sequence (P08913 whole entry): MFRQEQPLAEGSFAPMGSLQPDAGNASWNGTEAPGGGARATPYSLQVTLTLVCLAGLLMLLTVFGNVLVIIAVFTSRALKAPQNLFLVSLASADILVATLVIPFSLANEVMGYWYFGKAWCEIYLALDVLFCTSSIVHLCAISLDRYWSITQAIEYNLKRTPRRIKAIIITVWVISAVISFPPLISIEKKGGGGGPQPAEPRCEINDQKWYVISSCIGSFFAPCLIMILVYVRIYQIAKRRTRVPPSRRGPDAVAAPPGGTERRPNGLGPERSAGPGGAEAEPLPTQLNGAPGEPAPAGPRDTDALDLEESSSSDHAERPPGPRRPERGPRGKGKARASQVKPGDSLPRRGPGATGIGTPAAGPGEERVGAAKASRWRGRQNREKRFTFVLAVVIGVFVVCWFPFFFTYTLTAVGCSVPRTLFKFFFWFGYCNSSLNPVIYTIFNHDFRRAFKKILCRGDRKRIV

Histamine H1 receptor = Histamine H1 receptor (Homo sapiens, UniProt P35367)
Histamine H1 receptor, sequence (P35367 whole entry): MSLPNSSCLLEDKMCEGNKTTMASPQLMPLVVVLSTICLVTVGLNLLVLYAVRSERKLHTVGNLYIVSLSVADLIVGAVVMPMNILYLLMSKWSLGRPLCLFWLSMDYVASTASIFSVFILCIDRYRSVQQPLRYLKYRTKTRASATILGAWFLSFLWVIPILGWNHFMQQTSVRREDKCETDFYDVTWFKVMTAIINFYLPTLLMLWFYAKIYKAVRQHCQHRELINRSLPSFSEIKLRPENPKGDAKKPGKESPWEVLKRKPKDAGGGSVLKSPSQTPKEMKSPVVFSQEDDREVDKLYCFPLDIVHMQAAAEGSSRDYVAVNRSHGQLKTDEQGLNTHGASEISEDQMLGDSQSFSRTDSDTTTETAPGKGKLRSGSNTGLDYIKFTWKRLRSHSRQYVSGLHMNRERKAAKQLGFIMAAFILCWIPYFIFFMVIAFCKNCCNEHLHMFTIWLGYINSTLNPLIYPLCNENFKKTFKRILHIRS

Histamine H3 receptor = Histamine H3 receptor (Homo sapiens, UniProt Q9Y5N1)
Histamine H3 receptor, sequence (Q9Y5N1 whole entry): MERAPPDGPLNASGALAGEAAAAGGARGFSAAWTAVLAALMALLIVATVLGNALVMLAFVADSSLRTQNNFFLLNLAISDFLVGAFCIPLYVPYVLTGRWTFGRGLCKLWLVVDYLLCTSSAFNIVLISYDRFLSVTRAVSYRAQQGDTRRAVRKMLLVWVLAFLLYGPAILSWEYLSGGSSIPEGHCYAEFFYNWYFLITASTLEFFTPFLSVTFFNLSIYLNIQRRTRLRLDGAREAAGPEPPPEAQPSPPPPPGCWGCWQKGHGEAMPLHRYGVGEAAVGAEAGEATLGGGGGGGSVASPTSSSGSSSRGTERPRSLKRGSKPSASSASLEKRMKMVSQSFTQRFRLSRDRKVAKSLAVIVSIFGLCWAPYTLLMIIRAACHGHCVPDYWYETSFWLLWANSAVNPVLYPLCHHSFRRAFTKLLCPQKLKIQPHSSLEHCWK

[2] = molecular target: Glutamate receptor ionotropic, NMDA 1 (Rattus norvegicus, UniProt P35439)
[3] = molecular target: 5-hydroxytryptamine receptor 2B (Homo sapiens, UniProt P41595); assay type: functional, cell-based
5-hydroxytryptamine receptor 2B, sequence (P41595 whole entry): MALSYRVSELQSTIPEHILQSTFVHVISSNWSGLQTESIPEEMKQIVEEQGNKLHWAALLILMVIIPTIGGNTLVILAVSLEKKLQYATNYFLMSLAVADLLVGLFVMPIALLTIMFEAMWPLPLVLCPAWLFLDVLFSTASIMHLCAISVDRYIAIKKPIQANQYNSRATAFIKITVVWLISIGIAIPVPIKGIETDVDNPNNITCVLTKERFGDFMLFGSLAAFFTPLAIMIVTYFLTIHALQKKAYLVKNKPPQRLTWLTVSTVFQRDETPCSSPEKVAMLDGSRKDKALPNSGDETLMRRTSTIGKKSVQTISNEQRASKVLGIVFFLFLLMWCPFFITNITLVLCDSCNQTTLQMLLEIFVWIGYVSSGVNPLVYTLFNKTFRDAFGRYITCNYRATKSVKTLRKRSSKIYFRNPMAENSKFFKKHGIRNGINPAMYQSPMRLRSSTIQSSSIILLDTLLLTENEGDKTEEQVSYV

[4] = molecular target: T2, Alpha-2B adrenergic receptor (Homo sapiens, UniProt P18089)
T2 sequence (P18089 whole entry): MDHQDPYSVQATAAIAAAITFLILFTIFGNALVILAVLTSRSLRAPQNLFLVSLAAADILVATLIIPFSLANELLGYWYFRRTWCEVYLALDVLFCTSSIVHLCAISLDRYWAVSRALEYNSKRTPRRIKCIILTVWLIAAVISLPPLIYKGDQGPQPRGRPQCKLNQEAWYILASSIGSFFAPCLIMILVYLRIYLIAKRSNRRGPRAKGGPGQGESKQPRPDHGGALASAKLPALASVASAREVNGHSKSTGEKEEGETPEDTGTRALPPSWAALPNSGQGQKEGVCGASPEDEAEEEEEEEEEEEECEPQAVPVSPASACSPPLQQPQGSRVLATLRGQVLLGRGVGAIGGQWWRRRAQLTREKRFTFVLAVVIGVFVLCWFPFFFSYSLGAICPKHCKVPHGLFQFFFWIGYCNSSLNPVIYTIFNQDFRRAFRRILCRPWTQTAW

[5] = molecular target: 3',5'-cyclic-AMP phosphodiesterase 4A (Homo sapiens, UniProt P27815); assay type: functional
Adenosine receptor A3 = molecular target: T3, Adenosine receptor A3 (Homo sapiens, UniProt P0DMS8)
T3 sequence (P0DMS8 whole entry): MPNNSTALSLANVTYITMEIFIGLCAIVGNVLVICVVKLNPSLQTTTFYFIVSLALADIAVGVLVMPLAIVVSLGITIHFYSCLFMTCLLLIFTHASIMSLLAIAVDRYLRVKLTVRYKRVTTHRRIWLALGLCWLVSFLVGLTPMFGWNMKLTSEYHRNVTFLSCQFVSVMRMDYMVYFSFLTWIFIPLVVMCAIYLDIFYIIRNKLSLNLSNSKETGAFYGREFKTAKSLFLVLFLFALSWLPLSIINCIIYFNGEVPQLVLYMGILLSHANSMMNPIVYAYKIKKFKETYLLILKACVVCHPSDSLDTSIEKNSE

[6] = molecular target: Sodium-dependent noradrenaline transporter (Homo sapiens, UniProt P23975)
Sodium-dependent noradrenaline transporter, sequence (P23975 whole entry): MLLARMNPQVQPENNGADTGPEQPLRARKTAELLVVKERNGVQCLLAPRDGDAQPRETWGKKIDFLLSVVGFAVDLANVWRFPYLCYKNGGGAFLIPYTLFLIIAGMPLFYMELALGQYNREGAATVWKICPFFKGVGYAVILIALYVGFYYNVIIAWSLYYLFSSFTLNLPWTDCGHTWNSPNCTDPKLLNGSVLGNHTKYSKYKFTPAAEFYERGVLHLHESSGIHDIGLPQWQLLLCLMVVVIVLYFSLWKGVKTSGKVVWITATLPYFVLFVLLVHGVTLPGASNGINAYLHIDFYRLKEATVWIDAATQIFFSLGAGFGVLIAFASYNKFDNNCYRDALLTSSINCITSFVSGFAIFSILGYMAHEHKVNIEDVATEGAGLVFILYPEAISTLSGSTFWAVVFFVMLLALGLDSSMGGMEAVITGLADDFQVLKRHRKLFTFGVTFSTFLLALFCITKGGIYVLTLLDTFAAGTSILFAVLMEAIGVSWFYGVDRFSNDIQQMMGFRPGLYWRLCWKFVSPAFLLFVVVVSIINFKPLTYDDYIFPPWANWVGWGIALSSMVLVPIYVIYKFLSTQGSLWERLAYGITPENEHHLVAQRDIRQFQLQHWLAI

[7] = molecular target: T4, Alpha-1A adrenergic receptor (Homo sapiens, UniProt P35348); assay type: functional, cell-based
T4 sequence (P35348 whole entry): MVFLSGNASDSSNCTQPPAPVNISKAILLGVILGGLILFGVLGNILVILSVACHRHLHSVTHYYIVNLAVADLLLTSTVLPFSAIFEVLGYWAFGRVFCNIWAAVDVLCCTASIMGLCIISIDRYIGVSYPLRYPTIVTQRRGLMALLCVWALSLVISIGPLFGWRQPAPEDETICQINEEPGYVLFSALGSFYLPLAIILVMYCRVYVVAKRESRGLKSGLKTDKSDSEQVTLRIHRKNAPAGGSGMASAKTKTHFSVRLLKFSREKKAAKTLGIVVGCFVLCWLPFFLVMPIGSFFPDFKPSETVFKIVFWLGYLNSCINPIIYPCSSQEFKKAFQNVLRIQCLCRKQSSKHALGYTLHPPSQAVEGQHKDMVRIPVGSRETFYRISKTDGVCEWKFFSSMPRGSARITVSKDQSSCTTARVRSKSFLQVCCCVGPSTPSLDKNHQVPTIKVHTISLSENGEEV

[8] = molecular target: Gamma-aminobutyric acid receptor subunit alpha-1/alpha-2/beta-2/gamma-2 (Homo sapiens, UniProt P14867+P18507+P47869+P47870); assay type: protein-complex assay
Gamma-aminobutyric acid receptor subunit alpha-1/alpha-2/beta-2/gamma-2, sequence (P14867 whole entry): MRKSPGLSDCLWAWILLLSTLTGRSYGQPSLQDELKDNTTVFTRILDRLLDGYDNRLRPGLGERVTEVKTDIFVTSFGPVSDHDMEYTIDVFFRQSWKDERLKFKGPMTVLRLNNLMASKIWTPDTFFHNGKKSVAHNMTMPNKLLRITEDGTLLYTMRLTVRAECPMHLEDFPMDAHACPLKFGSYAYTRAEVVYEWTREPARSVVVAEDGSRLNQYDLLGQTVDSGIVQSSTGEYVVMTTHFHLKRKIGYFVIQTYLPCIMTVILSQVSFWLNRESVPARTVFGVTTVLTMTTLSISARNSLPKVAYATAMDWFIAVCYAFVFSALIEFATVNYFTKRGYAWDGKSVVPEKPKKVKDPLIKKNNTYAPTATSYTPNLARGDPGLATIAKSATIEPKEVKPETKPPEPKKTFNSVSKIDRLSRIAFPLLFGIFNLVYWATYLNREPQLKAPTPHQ
Gamma-aminobutyric acid receptor subunit alpha-1/alpha-2/beta-2/gamma-2, sequence (P47870 whole entry): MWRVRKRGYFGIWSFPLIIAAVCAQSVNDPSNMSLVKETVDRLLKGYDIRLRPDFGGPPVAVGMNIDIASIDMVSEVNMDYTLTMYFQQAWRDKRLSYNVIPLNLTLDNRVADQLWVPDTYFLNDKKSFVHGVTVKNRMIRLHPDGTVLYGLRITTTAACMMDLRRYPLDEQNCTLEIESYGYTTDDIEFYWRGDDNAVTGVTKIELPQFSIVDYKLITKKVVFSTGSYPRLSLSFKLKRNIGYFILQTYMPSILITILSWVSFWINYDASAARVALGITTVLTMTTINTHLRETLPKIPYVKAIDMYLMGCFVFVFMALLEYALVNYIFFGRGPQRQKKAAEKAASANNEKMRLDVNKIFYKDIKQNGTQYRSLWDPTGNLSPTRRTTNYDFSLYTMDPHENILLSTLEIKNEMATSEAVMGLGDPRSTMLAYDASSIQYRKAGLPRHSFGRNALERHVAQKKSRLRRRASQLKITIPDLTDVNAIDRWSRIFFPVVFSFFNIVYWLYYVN
Gamma-aminobutyric acid receptor subunit alpha-1/alpha-2/beta-2/gamma-2, sequence (P18507 whole entry): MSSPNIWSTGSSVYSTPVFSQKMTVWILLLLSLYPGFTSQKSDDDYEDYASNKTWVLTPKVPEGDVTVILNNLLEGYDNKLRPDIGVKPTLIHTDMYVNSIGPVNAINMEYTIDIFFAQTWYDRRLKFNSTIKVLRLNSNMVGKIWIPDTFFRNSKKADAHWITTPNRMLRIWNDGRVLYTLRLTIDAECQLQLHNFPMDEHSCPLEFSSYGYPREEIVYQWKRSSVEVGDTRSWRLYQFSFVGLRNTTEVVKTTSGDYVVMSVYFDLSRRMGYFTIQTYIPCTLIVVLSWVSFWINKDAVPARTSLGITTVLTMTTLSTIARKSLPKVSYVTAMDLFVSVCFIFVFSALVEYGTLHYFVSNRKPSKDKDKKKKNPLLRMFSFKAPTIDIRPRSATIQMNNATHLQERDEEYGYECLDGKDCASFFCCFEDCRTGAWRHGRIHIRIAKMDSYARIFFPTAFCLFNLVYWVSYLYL
Gamma-aminobutyric acid receptor subunit alpha-1/alpha-2/beta-2/gamma-2, sequence (P47869 whole entry): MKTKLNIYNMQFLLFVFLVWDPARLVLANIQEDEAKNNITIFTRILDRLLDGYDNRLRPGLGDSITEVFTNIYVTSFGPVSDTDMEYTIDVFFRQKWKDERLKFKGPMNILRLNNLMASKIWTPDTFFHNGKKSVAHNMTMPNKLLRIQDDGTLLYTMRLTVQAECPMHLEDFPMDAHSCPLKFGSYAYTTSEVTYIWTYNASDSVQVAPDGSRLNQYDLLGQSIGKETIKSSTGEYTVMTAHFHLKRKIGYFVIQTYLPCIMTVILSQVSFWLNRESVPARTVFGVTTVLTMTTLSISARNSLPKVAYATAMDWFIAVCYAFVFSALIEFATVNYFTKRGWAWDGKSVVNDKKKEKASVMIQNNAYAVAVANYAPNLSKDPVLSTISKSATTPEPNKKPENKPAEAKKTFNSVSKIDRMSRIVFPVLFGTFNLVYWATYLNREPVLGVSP

[9] = molecular target: T4, Alpha-1A adrenergic receptor; assay type: functional, cell-based; remark: listed apart in the source
Mu-type opioid receptor = Mu-type opioid receptor (Homo sapiens, UniProt P35372)
Mu-type opioid receptor, sequence (P35372 whole entry): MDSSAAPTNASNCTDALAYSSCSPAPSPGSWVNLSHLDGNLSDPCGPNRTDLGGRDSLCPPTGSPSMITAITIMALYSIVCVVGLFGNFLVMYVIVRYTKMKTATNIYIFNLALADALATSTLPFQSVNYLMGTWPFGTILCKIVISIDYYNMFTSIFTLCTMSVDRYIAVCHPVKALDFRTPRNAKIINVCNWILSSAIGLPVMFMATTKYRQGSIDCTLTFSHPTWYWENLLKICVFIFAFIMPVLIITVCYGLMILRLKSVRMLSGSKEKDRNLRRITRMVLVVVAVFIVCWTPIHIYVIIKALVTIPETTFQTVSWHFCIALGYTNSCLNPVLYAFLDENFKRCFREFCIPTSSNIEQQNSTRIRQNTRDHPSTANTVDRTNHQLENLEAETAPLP

Measured: AC50
Note: assay procedure not described here.

CCN(CC)C(=O)C1(c2ccccc2)CC1CN (stereo not drawn)
> 30 µM: [1] | Histamine H1 receptor | Histamine H3 receptor | [2] | [3] | [4]

CN(C)C(=O)Oc1cccc([N+](C)(C)C)c1 [NEOSTIGMINE]
> 30 µM: [5] | Adenosine receptor A3 | [6] | [7] | [8] | [9] | Mu-type opioid receptor
